Laboratory results as given in patent EP0931078B1, “NOVEL TRICYCLIC PIPERIDINYL COMPOUNDS USEFUL AS INHIBITORS OF FARNESYL-PROTEIN TRANSFERASE” (SCHERING CORPORATION, priority 1996, dated 1998).
Read-outs that look alike come from different tables or passages of the source.

Target: T1, partially purified rat brain famesyl protein transferase (FPT) (Rattus norvegicus, UniProt Q02293+Q04631)
T1 construct: partially purified rat brain famesyl protein transferase (FPT); from tissue; host or cells: rat brain
T1 sequence (Q02293 whole entry, one chain of several): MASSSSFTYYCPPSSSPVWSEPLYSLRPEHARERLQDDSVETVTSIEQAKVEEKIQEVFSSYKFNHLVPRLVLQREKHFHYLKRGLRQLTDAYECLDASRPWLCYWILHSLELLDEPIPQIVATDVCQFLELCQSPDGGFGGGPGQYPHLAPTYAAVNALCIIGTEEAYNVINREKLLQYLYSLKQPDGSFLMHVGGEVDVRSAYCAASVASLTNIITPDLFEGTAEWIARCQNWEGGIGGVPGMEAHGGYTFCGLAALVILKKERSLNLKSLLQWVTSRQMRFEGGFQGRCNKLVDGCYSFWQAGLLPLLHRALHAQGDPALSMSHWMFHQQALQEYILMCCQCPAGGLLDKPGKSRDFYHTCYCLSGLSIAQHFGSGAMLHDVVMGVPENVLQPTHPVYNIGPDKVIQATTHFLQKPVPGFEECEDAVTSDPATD
Assay: In vitro enzyme assay: inhibition of Ras-CVLS farnesylation by farnesyl protein transferase (FPT)
Type: biochemical
Description: • 1. In vitro enzyme assays: FPT IC50 (inhibition of famesyl protein transferase, in vitro enzyme assay) are determined by the methods disclosed in […] or WO 95/10516. […] Cell-based assay. COS IC50 values refer to the COS cells activity inhibition of Ras processing, are determined by the methods disclosed in […] or WO 95/10516.

[1] = unit printed as uM (Examples 49-54)

O=C(NCc1cccnc1)C1CCCN(C2c3ncc(Br)cc3CCc3cc(Cl)cc(Br)c32)C1 (single isomer, unassigned) [Example 17 Isomer B, 1-(3,10-Dibromo-8-chloro-6,11-dihydro-5H-benzo[5,6]cyclohepta[1,2-b]pyridin-11-yl)-N-(3-pyridinylmethyl)-3-piperidinecarboxamide]
inhibition at 0.1 µM (read-out: FPT Inhibition): 3.4%

O=C(NCc1ccc[n+]([O-])c1)[C@@H]1CCCN(C2c3ncc(Br)cc3CCc3cc(Cl)cc(Br)c32)C1 (single isomer, unassigned) [Example 51, 1-(3,10-Dibromo-8-chioro-6,11-dihydro-5H-benzo[5,6]cyclohepta[1,2-b]pyridin-11-yl)-N-(3-pyridinylmethyl)-3-piperidinecarboxamide N1-oxide]
IC50 [1]: 0.1 µM

O=C(NCc1ccncc1)[C@H]1CCCCN1C1c2ccc(Cl)cc2CCc2cc(Br)cnc21 (single isomer, unassigned) [Isomer A2 amide]
FPT Inhibition (@ 1.1 µM): FPT Inhibition = 0% @ 1.1 µM

O=C(NCc1ccncc1)[C@H]1CCCCN1C1c2ccc(Cl)cc2CCc2cc(Br)cnc21 (single isomer, unassigned) [Isomer B2 amide]
FPT Inhibition (@ 1.1 µM): FPT Inhibition = 13% @ 1.1 µM

O=C(NCc1cccnc1)C1CCCCN1C1c2ccc(Cl)cc2CCc2cc(Br)cnc21 (single isomer, unassigned) [Isomer C1 amide]
IC50: 0.3 µM

O=C(NCc1cccnc1)[C@H]1CCCCN1C1c2ccc(Cl)cc2CCc2cc(Br)cnc21 (single isomer, unassigned) [Isomer C2 amide]
FPT Inhibition (@ 0.38 µM): FPT Inhibition =11% @ 0.38 µM

O=C(NCc1cccnc1)C1CCCCN1C1c2ccc(Cl)cc2CCc2cc(Br)cnc21 (single isomer, unassigned) [Isomer D1 amide]
IC50: 0.16 µM

O=C(NCc1cccnc1)[C@H]1CCCCN1C1c2ccc(Cl)cc2CCc2cc(Br)cnc21 (single isomer, unassigned) [Isomer D2 amide]
FPT Inhibition (@ 0.38 µM): FPT Inhibition = 0% @ 0.38 µM

O=C(Nc1ccncc1)C1CCN(C2c3ccc(Cl)cc3CCc3cccnc32)CC1 (stereo not shown) [Example 1, 1-[8-Chloro-6,11-dihydro-5H-benzo[5,6]cyclohepta[1,2-b]pyridin-11-yl]-N-(4-pyridinyl)-4-piperidinecarboxamide]
IC50: 9.24 µM

O=C(Nc1ccncc1)C1CCN(C2c3ccc(Cl)cc3CCc3cc(Br)cnc32)CC1 (stereo not shown) [Example 2, 1-(3-Bromo-8-chloro-6,11-dihydro-5H-benzo[5,6]cyclohepta[1,2-b]pyridin-11-yl)-N-(4-pyridinyl)-4-piperidinecarboxamide]
inhibition at 0.39 µM (read-out: FPT Inhibition): 0%

O=C(NCc1ccncc1)C1CCN(C2c3ccc(Cl)cc3CCc3cc(Br)cnc32)CC1 (stereo not shown) [Example 3, 1-(3-Bromo-8-chloro-6,11-dihydro-5H-benzo[5,6]cyclohepta[1,2-b]pyridin-11-yl)-N-(4-pyridinylmethyl)-4-piperidinecarboxamide]
inhibition at 1.1 µM (read-out: FPT Inhibition): 21%

O=C(NCc1cccnc1)C1CCN(C2c3ccc(Cl)cc3CCc3cc(Br)cnc32)CC1 (stereo not shown) [Example 4, 1-(3-Bromo-8-chloro-6,11-dihydro-5H-benzo[5,6]cyclohepta[1,2-b]pyridin-11-yl)-N-(3-pyridinylmethyl)-4-piperidinecarboxamide]
IC50: 1.3 µM

O=C(NCc1ccccn1)C1CCN(C2c3ccc(Cl)cc3CCc3cc(Br)cnc32)CC1 (stereo not shown) [Example 5, 1-(3-Bromo-8-chloro-6,11-dihydro-5H-benzo[5,6]cyclohepta[1,2-b]pyridin-11-yl)-N-(2-pyridinyimethyl)-4-piperidinecarboxamide]
IC50: 1.8 µM

O=C(NC1CCNCC1)C1CCN(C2c3ccc(Cl)cc3CCc3cc(Br)cnc32)CC1 (stereo not shown) [Example 7 Step B, 1-(3-Bromo-8-chloro-6,11-dihydro-5H-benzo[5,6]cyclohepta[1,2-b]pyridin-11-yl)-N-(4-piperidinyl)-4-piperidinecarboxamide]
inhibition at 0.39 µM (read-out: FPT Inhibition): 8.75%

O=C(NCC1CCNCC1)C1CCN(C2c3ccc(Cl)cc3CCc3cc(Br)cnc32)CC1 (stereo not shown) [Example 8 Step B, 1-(3-Bromo-8-chloro-6,11-dihydro-5H-benzo[5,6]cyclohepta[1,2-b]pyridin-11-yl)-N-(4-piperidinylmethyl)-4-piperidinecarboxamide]
inhibition at 0.38 µM (read-out: FPT Inhibition): 12%

NC(=O)NCC1CCN(C(=O)C2CCN(C3c4ccc(Cl)cc4CCc4cc(Br)cnc43)CC2)CC1 (stereo not shown) [Example 9, 1-[1-(3-Bromo-8-chloro-6,11-dihydro-5H-benzo[5,6]cyclohepta[1,2-b]pyridin-11-yl)-4-piperidinylcarbonyl]-4-[(1-aminomethanamido)methyl]piperidine]
IC50: 0.66 µM

O=C(NCc1cccnc1)C1CCCN(C2c3ccc(Cl)cc3CCc3cc(Br)cnc32)C1 (stereo not shown) [Example 10, 1-(8-chloro-3-bromo-5,6-dihydro-11H-benzo[5,6]-cyclohepta[1,2-b]pyridin-11-yl)piperidine-3-(N-3-pyridylmethylamino)carboxamide]
IC50: 0.21 µM

O=C(Nc1cccnc1)C1CCCN(C2c3ccc(Cl)cc3CCc3cc(Br)cnc32)C1 (stereo not shown) [Example 11, 1-(3-bromo-8-chloro-6,11-dihydro-5H-benzo[5,6]cyclohepta [1,2-b]pyridin-11-yl)-N-(3-pyridinyl)-3-piperidinecarboxamide]
IC50: 0.065 µM

O=C(NCc1cccnc1)C1CCCN(C2c3ncc(Br)cc3CCc3cc(Cl)cc(Br)c32)C1 (stereo not shown) [Example 16, 1-(3,10-Dibromo-8-chloro-6,11-dihydro-5H-benzo[5,6]cyclohepta[1,2-b]pyridin-11-yl)-N-(3-pyridinylmethyl)-3-piperidinecarboxamide]
IC50: 0.027 µM

O=C(CC1CCCN(C2c3ccc(Cl)cc3CCc3cc(Br)cnc32)C1)NCc1cccnc1 (stereo not shown) [Example 18, 1-(3-Bromo-8-chloro-6,11-dihydro-5H-benzo[5,6]cyclohepta[1,2-b]pyridin-11-yl)-N-(3-pyridinylmethyl)-3-piperidineacetamide]
inhibition at 1.1 µM (read-out: FPT Inhibition): 9%

O=C(CC1CCCN(C2c3ccc(Cl)cc3CCc3cc(Br)cnc32)C1)Nc1cccnc1 (stereo not shown) [Example 19, 1-(3-Bromo-8-chloro-6,11-dihydro-5H-benzo[5,6]cyclohepta[1,2-b]pyridin-11-yl)-N-(3-pyridinyl)-3-piperidineacetamide]
inhibition at 1.1 µM (read-out: FPT Inhibition): 15%

O=C(CC1CCN(C2c3ccc(Cl)cc3CCc3cc(Br)cnc32)CC1)NCc1cccnc1 (stereo not shown) [Example 43, 1-(3-Bromo-8-chloro-6,11-dihydro-5H-benzo[5,6]cyclohepta[1,2-b]pyridin-11-yl)-N-(3-pyridylmethyl)-4-piperidineacetamide]
inhibition at 0.22 µM (read-out: FPT INH): 43%

O=C(CCC1CCN(C2c3ccc(Cl)cc3CCc3cc(Br)cnc32)CC1)NCc1cccnc1 (stereo not shown) [Example 44, 1-(3-Bromo-8-chloro-6,11-dihydro-5H-benzo[5,6]cyclohepta[1,2-b]pyridin-11-yl)-N-(3-pyridylmethyl)-4-piperidinepropanamide]
inhibition at 0.35 µM (read-out: FPT INH): 39%

O=C(CC1CCN(C2c3ncc(Br)cc3CCc3cc(Cl)cc(Br)c32)CC1)NCc1cccnc1 (stereo not shown) [Example 45, 1-(8-Chloro-3,10-dibromo-6,11-dihydro-5H-benzo[5,6]cycloheptal[1,2-b]pyridin-11-yl)-N-(3-pyridylmethyl)-4-piperidineacetamide]
IC50: 0.042 µM

O=C(NC1CC1)[C@@H]1CCCN(C2c3ncc(Br)cc3CCc3cc(Cl)cc(Br)c32)C1 (stereo partly shown) [Example 49, N-cyclopropyl-1-(3,10-dibromo-8-chloro-6,11-dihydro-5H-benzo[5,6]cyclohepta[1,2-b]pyridin-11-yl)-3-piperidinecarboxamide]
IC50 [1]: 0.58 µM
